Holding throughout (type): biochemical
The target in test [1] is mu opioid receptor (MOR) (Homo sapiens, UniProt P35372). In words: GTP-γ-S binding assay (SPA), antagonist mode, mu. The conditions noted are these: antagonism of agonist DAMGO 1 micromolar; membranes; Kb by Cheng-Prusoff equation; read-out: In Vitro Antagonism GTP-γ-S Kb (nM) Mu. As to the method: (§1) A scintillation proximity assay (SPA)-based GTP-γ-S^35 assay format was developed based on previous opioid (Emmerson et al., J. Pharm Exp Ther 278, 1121, 1996; Horng et al., Society for Neuroscience Abstracts, 434.6, 2000) and muscarinic (DeLapp et al., JPET 289, 946, 1999) assay formats. Membranes were resuspended in 20 mM HEPES, 100 mM NaCl, 5 mM MgCl2, 1 mM DTT, and 1 mM EDTA. […] of GTP-γ-[35S], compound, membrane suspension (20 microgram/well), and wheat germ agglutinin coated SPA beads (1 mg/well) were added to clear bottom 96 well assay plates. GDP ([…]) was added to the membrane solution prior to addition to the assay plates. Plates were sealed and incubated for four hours at room temperature then placed in a refrigerator overnight to allow the beads to settle. Signal stability at 4° C. was determined to be >60 hours. Plates were warmed to room temperature and counted in a Wallac Microbeta scintillation counter. For antagonist assays, specific agonists were added at the following concentrations: (MOR) DAMGO 1 micromolar, (DOR) DPDPE 30 nM, (KOR) US69593 300 nM. Kb's were determined by Cheng-Prusoff equation (see Cheng and Prusoff, Biochem. Pharmacol. 22, 3099 1973).

Test [2] addresses delta opioid receptor (DOR) (Homo sapiens, UniProt P41143). Kind of test: GTP-γ-S binding assay (SPA), antagonist mode, delta. The conditions noted are these: antagonism of agonist DPDPE 30 nM; membranes; Kb by Cheng-Prusoff equation; read-out: In Vitro Antagonism GTP-γ-S Kb (nM) Delta. The protocol: as §1
The target in test [3] is kappa opioid receptor (KOR) (Homo sapiens, UniProt P41145). Kind of test: GTP-γ-S binding assay (SPA), antagonist mode, kappa. The conditions noted are these: antagonism of agonist US69593 300 nM; membranes; Kb by Cheng-Prusoff equation; read-out: In Vitro Antagonism GTP-γ-S Kb (nM) Kappa. As to the method:
as §1

Where a name gives a salt, the structure may show the parent alone.

delta opioid receptor (DOR), sequence (P41143 whole entry): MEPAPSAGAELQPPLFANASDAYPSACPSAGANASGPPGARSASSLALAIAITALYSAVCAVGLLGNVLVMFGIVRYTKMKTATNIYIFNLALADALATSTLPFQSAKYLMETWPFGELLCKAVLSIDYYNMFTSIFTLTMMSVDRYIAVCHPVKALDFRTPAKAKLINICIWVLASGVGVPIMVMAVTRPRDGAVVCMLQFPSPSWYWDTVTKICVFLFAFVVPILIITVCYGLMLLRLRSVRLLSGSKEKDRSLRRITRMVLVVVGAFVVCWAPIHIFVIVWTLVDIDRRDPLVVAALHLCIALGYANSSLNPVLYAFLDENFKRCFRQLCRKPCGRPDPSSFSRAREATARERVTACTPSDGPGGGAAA
kappa opioid receptor (KOR), sequence (P41145 whole entry): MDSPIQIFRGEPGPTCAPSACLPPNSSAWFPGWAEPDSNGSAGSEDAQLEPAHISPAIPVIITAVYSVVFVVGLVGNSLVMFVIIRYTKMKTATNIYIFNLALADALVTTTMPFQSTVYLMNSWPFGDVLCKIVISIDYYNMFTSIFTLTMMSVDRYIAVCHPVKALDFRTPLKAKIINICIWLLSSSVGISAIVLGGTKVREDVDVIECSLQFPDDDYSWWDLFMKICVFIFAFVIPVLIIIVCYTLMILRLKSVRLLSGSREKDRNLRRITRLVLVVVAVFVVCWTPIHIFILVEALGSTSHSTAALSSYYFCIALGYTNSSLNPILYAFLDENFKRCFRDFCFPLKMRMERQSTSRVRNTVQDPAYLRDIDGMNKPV
mu opioid receptor (MOR), sequence (P35372 whole entry): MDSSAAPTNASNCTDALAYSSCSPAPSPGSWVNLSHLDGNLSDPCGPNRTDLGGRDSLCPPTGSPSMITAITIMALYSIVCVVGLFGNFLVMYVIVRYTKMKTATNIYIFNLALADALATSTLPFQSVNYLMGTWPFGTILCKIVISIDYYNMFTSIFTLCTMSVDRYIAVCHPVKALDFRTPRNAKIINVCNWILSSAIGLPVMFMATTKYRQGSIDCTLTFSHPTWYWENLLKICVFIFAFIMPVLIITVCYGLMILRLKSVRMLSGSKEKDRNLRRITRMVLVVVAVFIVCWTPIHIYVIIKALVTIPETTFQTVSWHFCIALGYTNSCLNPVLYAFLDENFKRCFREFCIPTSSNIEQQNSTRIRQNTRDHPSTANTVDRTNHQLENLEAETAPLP

On to `CC(C)CCNCc1ccc(Oc2ccc(C(N)=O)cc2)s1` [Example 2, 4-{5-[(3-Methyl-butylamino)-methyl]-thiophen-2-yloxy}-benzamide], for which the Kb was determined as 3.7 nM in test [1], 19.4 nM in test [2] and 2.2 nM in test [3].

For the molecule `NC(=O)c1ccc(Oc2ccc(CNCCC3CCCC3)s2)cc1` [Example 4, 4-{5-[(2-Cyclopentyl-ethylamino)-methyl]-thiophen-2-yloxy}-benzamide], the Kb is 0.6 nM in test [1], 2.7 nM in test [2] and 1 nM in test [3].

For `NC(=O)c1ccc(Oc2ccc(CNCCc3cccs3)s2)cc1` [Example 5, 4-{5-[(2-Thiophen-2-yl-ethylamino)-methyl]-thiophen-2-yloxy}-benzamide], the Kb in test [1] amounted to 0.6 nM; in test [2], 2.4 nM; in test [3] it was 1.4 nM.

Regarding `NC(=O)c1ccc(Oc2ccc(CNCCc3ccccc3)s2)cc1` [Example 1, 4-[5-(Phenethylamino-methyl)-thiophen-2-yloxy]-benzamide], the Kb turned out to be 0.6 nM in test [1], 3.3 nM in test [2] and 4.6 nM in test [3].

For the molecule `NC(=O)c1ccc(Oc2ccc(CNCCc3cccc(F)c3)s2)cc1` [Example 3, 4-(5-{[2-(3-Fluoro-phenyl)-ethylamino]-methyl}-thiophen-2-yloxy)-benzamide], the Kb in test [1] amounted to 0.6 nM; in test [2] it was 1.6 nM; in test [3] it was 3.9 nM.

For the molecule `COc1cc(C(N)=O)ccc1Oc1ccc(CNCCc2ccccc2)s1` [Example 7, 3-Methoxy-4-[5-(phenethylamino-methyl)-thiophen-2-yloxy]-benzamide hydrochloride], the Kb in test [1] stood at 0.3 nM; in test [2], 1.3 nM; in test [3] it was 4 nM.

`CC(C)(C)CCNCc1ccc(Oc2ccc(C(N)=O)cc2)s1` [Example 6, 4-{5-[(3,3-Dimethyl-butylamino)-methyl]-thiophen-2-yloxy}-benzamide]: the Kb in test [1] stood at 5.7 nM; in test [2], 13.7 nM.

Regarding `COc1cc(C(N)=O)ccc1Oc1ccc(CNCCC(C)C)s1` [Example 8, 3-Methoxy-4-{5-[(3-methyl-butylamino)-methyl]-thiophen-2-yloxy}-benzamide hydrochloride], the Kb in test [1] was 4.7 nM; in test [2] it was 40.5 nM; in test [3], 3.2 nM.

The values are drawn from patent publication US7396943B2, “Opioid receptor antagonists” (Eli Lilly and Company, priority 2004, dated 2008).
